Key:
[1] = system: adult lamprey olfactory system; settings: with high specificity; Polkinghorne 2001, Li 1995, Li 1997; cited from earlier work
[2] = system: olfactory epithelium of migratory adult sea lamprey; experiment: electro-olfactogram (EOG) recording of olfactory activity; format: in vivo; settings: odorant pulsed over the nose, FIG. 2 insets
Description: Using electro-olfactogram recording (EOG) to screen for olfactory activity. The EOG measures extracellular voltage transients believed to reflect large numbers of olfactory receptor generator potential (Sorensen et al. in: The Physiology of Fishes, 2nd ed., (ed., R. E. Evans), 375-406, (CRC Press, FL, 1998)). To accomplish EOG recording, freshly-captured migratory adult sea lamprey were anesthetized, immobilized, and their olfactory epithelium exposed following established protocols (Li et al., J. Gen. Physiol., 105, 569-589 (1995); and Li et al., Petromyzon marinus, J. Comp Physiol. A., 180, 429-438 (1997)). One electrode was placed on the head and the other positioned to find a region of maximum sensitivity to our standard, 10^−5 M L-arginine. Test odorants were then pulsed over the nose for 3-sec intervals with breaks. All stimuli were tested at least twice. Aliquots of appropriate solvents were diluted and tested as controls.

[3] = system: migratory sea lampreys; experiment: behavioral assay in large 2-choice maze; format: in vivo, sea lamprey; settings: 14 trials of 4 lampreys
Procedure: Confirming biological activity using a behavioral assay. Migratory sea lampreys were tested at night in large (9×1.8 meters (m)) 2-choice mazes supplied with natural lake and rivers waters (400 L min^−1) designed to simulate the scenario of lamprey encountering a river plume in a lake. Test odors were pumped down one side (in a way shown by dye to effect complete mixing) and appropriate controls (carriers, etc.) down the other. Trials lasted 15 min and commenced when groups of 4 sea lamprey were released from the upstream section of the maze and the time they spent in the stimulus side or its control noted. Experiments typically employed 14 trails and were evaluated by t-test after arc-sign transformation (Vrieze et al., Can. J. Fish. Aquat. Sci., 58, 2374-2385 (2001)).

Compound: C[C@H](CCC(=O)O)[C@H]1CC[C@H]2[C@@H]3[C@H](O)C[C@H]4C[C@H](O)CC[C@]4(C)[C@H]3C[C@H](O)[C@]12C [ACA, allocholic acid]
- concentration at which the adult lamprey olfactory system detects the product [1]: 10^−11 Molar (M)

Compound: C[C@H](CCCOS(=O)(=O)[O-])[C@H]1CC[C@H]2[C@@H]3[C@H](O)C[C@H]4C[C@H](O)CC[C@]4(C)[C@H]3C[C@H](O)[C@]12C.[Na+] [compound 1, petromyzonol sulfate, reference compound]
- EOG threshold (lowest concentration detected by EOG recording) [2]: below 10^−12 M
- behavioral activity (attraction) in maze ([3]; at 10^−11 M): only weak and somewhat inconsistent behavioral activity
- concentration at which the adult lamprey olfactory system detects the product [1]: 10^−12 Molar (M)

Compound: CC(C)[C@@H](CC[C@@H](C)[C@H]1CC[C@H]2[C@@H]3[C@H](OS(=O)(=O)[O-])C[C@H]4C[C@@H](NCCCN5CCCC5=O)CC[C@]4(C)[C@H]3CC[C@]12C)OS(=O)(=O)[O-].[Na+].[Na+] [compound 3, petromyzonamine disulfate]
- EOG threshold (lowest concentration detected by EOG recording) [2]: 10^−13 M
- behavioral activity (attraction) in maze ([3]; at 10^−12 M): strongly attracted
- behavioral activity (attraction) in maze ([3]; at 10^−13 M): strongly attracted

Compound: petromyzosterol disulfate [compound 2]
- EOG threshold (lowest concentration detected by EOG recording) [2]: 10^−12 M
- behavioral activity (attraction) in maze ([3]; at 10^−11 M): consistently attractive
